Experimental data: patent publication EP0369035A1, “AGENT FOR TREATING PANCREATITIS OR THE LIKE” (priority 1988, dated 1989)
Read-outs that look alike come from different tables or passages of the source.

Legend:
human plasmin [1] = target: T1, human plasmin (Homo sapiens, UniProt P00747); assay: Anti-plasmin activity: inhibition of S-2251 degradation; type: biochemical
T1 construct: 50 µl of 0.2 casein units/ml of human plasmin
Method: ii) Assay method of inhibition of S-2251 degradation
The test substance was dissolved in a 0.05 M Tris-HC1 (pH7.4) buffer to make a total volume of 400 µl, and 50 µl of a 3 mM S-2251 solution was added to the solution. The mixture was incubated at 37°C for 5 minutes in an incubator, and after the addition of 50 µl of 0.2 casein units/ml of human plasmin, and incubation at 37°C for 4 minutes, the reaction was terminated by an addition of 50 µl of 50% acetic acid.

human plasmin [2] = target: T1, human plasmin; assay: Anti-plasmin activity: inhibition of fibrinolysis (fibrin clot lysis time); type: biochemical
human plasma kallikrein = target: T2, human plasma kallikrein (Homo sapiens, UniProt P03952); assay: Anti-plasma kallikrein activity: inhibition of S-2302 degradation; type: biochemical
T2 construct: 50 µl of 0.12 units/ml human plasma kallikrein solution
Method: 2) Assay of anti-plasma kallikrein activity Assay method of inhibition of S-2302 degradation
(§1) The test substance was dissolved in a 0.05 M Tris-HC1 (pH 7.8) buffer to make a total volume of 400 µl, and 50 µl of a 2 mM S-2302 solution was added to the solution. After incubation at 37°C for 5 minutes in an incubator, an addition of 50 µl of 0.12 units/ml human plasma kallikrein solution, and incubation at 37°C for 5 minutes, the reaction was terminated by an addition of 50 µl of 50% acetic acid.

human urokinase = human urokinase (Homo sapiens, UniProt P00749); assay: Anti-urokinase activity: inhibition of S-2444 degradation; type: biochemical; details: substrate S-2444, 37°C, pH 8.8; read-out: Urokinase S-2444 (I50)
Method: 3) Assay of anti-urokinase activity Assay method of inhibition of S-2444 degradation
as §1, with “8.8)” for “7.8)”, “1” for “2”, “S-2444” for “S-2302”, “mixture.” for “solution.”, “500” for “0.12”, “urokinase” for “plasma kallikrein”

bovine factor Xa = target: T3, bovine factor Xa (Bos taurus, UniProt P00743); assay: Anti-FXa activity: inhibition of S-2222 degradation; type: biochemical
T3 construct: 0.05 ml of 0.3 vial/ml bovine factor Xa
Method: 4) Assay of anti-FXa activity Assay method of inhibition of S-2222 degradation
To 0.4 ml of the test substance dissolved in a 0.05 M Tris-HC1 (pH 8.3) buffer is added 0.05 ml of 3 mM S-2222 solution, and after incubation at 37°C for about 4 minutes, an addition of 0.05 ml of 0.3 vial/ml bovine factor Xa, and a reaction at 37°C for 4 minutes, the - reaction was terminated by adding 0.05 ml of 50% acetic acid.

[3] = system: experimental pancreatitis; assay: Effect on experimental pancreatitis (sodium taurochorate + trypsin into the common bile duct), survival ratio; type: in vivo, SD-rats; design: Effect on experimental pancreatitis (100 mg/kg p.o.) After 24 hours / Effect on experimental pancreatitis (100 mg/kg p.o.) After 48 hours / Effect of existing control drug on experimental pancreatitis After 24 hours: unit not given here; details: rat; for Effect on experimental pancreatitis Survival ratio(%) After 24 hours / Effect on experimental pancreatitis Survival ratio(%) After 48 hours: 80 μg/kg/min. x 80 min. continuous infusion; for Effect on experimental pancreatitis (100 mg/kg p.o.) After 24 hours / Effect on experimental pancreatitis (100 mg/kg p.o.) After 48 hours / Effect of existing control drug on experimental pancreatitis After 24 hours: survival ratio; for Effect on experimental pancreatitis (100 mg/kg p.o.) After 24 hours / Effect on experimental pancreatitis (100 mg/kg p.o.) After 48 hours: 100 mg/kg p.o. 30 minutes before pancreatitis
Description: [II] Effect on experimental pancreatitis
SD-rats, body weight of about 200 g were, starved overnight, and 10 to 24 animals were used in one group. Sodium pentobarbital was intraperioneally administered to anesthetize each rat, and then a cannula was inserted to the femoral vein for the administration of the test substance. After abdominal surgery, the bile duct was blocked at a part thereof proximate to the liver, by a clip, a polyethylene tube was inserted to the common bile duct at a part thereof most proximate to the duodenum, and 0.1 ml of solution containing 2 mg sodium taurochorate and 1000 U trypsin dissolved in physiological saline was injected retrogrodely. After removal of the clip and tube, the common bile duct was ligated and the abdomen was closed. Note, the test substance was dissolved in an injective 5% glucose solution, and in the case of a continuous infusion, the solution was administered over 80 minutes starting from 10 minutes before the generation of pancreatitis. In the case of oral administration, the test substance was administered through an oral catheter 30 minutes before the generation of pancreatitis. After 24 hours and 48 hours from the generation of pancreatitis, the survival ratio of the animals was calculated and compared with a control group.

in vivo = details: mouse, intravenous, ICR male mice, up-and-down method, read-out: Acute toxicity (LD50)
Method: ICR male mice 5 to 10 weeks old were used. The test substance was dissolved in a 5% dimethylsulfoxide aqueous solution, and the solution was intravenously administered in an amount of 0.1 to 0.2 ml/10 g body weight. An LD50 value was calculated by up-and-down method.

[4] = Measurement of half life in blood; type: in vivo; details: rat, iv, administered to the tail vein, SD-rats, plasma, HPLC
Method: [VI] Measurement of half life in blood
SD-rats 6 to 7 weeks old were used. The test substance was dissolved in an injective 5% glucose solution and administered to the tail vein. After the administration, blood samples were periodically obtained from the great vein and placed into heparinized test tubes. Plasma was separated by centrifugation and the test substance was extracted with ethyl acetate. After removal of the solvent, the residue was dissolved in 200 µl of methanol, and analyzed by high performance liquid chromatography. From the change of the concentration of the test substance in blood with time, a half life thereof in blood was calculated.

experimental DIC = assay: Effect on experimental DIC and MOF (endotoxin-induced); type: in vivo, SD-rats; details: rat, 4 hours after endotoxin 10 mg/kg
Method: [III] Effect on experimental DIC
SD-rats, body weight of about 200 g, were starved overnight. Sodium pentobarbital was intraperioneally administered to anesthetize a rat, and then a cannula was inserted to the femoral vein, and the test substance dissolved in an injective 5% glucose solution was continually infused. Then, 10 minutes from the start of the injection, endotoxin (E. coli 0127:B8, Difco, U.S.) dissolved in physiological saline was injected through the tail vein to an amount of 10 mg/kg body weight, and 4 hours from the administration of endotoxin, the abdomen was opened, blood was obtained from the abdominal aorta, and platelets (Plt), fibrinogen (Fbg), fibrin degradation product (FDP), glutamic oxaloacetic transamirase (GOT), creatinine phosphokinase (CPK), and blood urin nitrogen (BUN) were measured.

experimental shock = assay: Effect on experimental shock (endotoxin-induced), survival ratio; type: in vivo, ICR-mice; details: dose of 30 mg/kg intraperitoneally 15 minutes before endotoxin 40 mg/kg, mouse
Method: [IV] Effect on experimental shock
ICR-mice, body weight of about 25 g, were starved overnight. The test substance was dissolved in an injective 5% glucose solution and intraperioneally administered, and 15 minutes later, endotoxin (E. coli 0127:B8, Difco, U.S.) dissolved in a physiological saline was intraperioneally administered to an amount of 40 mg/kg body weight.

[5] = substrate S-2251, 37°C, pH7.4, read-out: Plasmin S-2251 (I50)
[6] = concentration giving a fibrin clot lysis time twice that of control, 37°C, pH7.4, read-out: Plasmin Fibrin (I50)
[7] = substrate S-2302, 37°C, pH 7.8, read-out: Plasma kallikrein S-2302 (I50)
[8] = substrate S-2222, 37°C, pH 8.3, read-out: FXa S-2222 (I50)

T1 sequence (P00747 581-810 limits assumed): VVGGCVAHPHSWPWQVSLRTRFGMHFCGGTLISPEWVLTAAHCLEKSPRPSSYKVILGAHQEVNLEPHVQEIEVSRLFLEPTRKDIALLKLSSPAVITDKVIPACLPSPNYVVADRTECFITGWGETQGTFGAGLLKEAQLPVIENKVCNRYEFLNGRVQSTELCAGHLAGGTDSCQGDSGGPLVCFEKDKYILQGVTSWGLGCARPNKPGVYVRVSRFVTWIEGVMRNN
T1 sequence (P00747 97-580 partner limits assumed): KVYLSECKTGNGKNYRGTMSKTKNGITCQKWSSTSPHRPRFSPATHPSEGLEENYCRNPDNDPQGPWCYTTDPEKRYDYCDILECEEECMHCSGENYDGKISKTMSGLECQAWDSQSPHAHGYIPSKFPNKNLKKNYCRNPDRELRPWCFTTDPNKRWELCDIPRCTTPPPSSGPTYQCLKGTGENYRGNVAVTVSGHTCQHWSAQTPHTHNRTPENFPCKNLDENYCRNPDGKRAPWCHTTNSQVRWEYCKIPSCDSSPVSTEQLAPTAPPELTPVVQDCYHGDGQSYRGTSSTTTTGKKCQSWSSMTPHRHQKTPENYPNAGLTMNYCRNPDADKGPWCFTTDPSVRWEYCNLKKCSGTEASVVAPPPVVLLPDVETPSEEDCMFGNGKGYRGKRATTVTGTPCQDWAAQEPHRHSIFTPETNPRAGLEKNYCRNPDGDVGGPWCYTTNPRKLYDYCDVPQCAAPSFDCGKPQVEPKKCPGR
T2 sequence (P03952 391-638 limits assumed): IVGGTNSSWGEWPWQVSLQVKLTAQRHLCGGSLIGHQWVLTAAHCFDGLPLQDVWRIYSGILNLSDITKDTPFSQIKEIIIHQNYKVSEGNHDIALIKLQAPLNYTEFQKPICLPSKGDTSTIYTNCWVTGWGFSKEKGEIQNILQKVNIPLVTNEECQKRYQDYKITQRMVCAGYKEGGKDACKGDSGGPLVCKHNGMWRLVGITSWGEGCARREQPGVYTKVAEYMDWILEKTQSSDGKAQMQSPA
T2 sequence (P03952 20-390 partner limits assumed): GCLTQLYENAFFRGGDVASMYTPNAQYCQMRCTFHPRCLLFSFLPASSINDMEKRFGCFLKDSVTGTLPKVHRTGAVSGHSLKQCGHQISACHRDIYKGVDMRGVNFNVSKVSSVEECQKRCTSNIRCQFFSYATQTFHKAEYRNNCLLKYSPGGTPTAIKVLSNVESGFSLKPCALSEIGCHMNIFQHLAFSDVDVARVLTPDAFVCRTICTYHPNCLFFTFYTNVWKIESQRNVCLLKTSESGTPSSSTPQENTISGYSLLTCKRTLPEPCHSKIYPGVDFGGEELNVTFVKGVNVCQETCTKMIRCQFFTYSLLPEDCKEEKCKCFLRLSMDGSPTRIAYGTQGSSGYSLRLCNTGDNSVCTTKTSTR
T3 sequence (P00743 234-492 limits assumed): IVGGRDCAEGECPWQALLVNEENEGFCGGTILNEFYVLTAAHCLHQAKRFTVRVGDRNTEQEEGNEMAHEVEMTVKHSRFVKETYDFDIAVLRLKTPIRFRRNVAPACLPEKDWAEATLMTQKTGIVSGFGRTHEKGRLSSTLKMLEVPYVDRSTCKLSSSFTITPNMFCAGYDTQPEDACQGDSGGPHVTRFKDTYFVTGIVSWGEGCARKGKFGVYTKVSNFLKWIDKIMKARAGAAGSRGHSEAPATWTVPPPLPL
T3 sequence (P00743 41-180 partner limits assumed): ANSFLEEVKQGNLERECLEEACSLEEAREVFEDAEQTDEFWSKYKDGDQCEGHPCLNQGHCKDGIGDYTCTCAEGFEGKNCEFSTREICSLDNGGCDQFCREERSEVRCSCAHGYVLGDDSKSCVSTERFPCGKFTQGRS

| SMILES | IC50 (human plasmin [1]; [5]) | IC50 (human plasmin [2]; [6]) | IC50 (human plasma kallikrein; [7]) | IC50 (human urokinase) | IC50 (bovine factor Xa; [8]) | Effect on experimental pancreatitis Survival ratio(%) After 24 hours [3] | Effect on experimental pancreatitis Survival ratio(%) After 48 hours [3] | Effect on experimental pancreatitis (100 mg/kg p.o.) After 24 hours [3] | Effect on experimental pancreatitis (100 mg/kg p.o.) After 48 hours [3] | LD50 (in vivo) | half-life [4] | other results |
| --- | --- | --- | --- | --- | --- | --- | --- | --- | --- | --- | --- | --- |
| NC[C@H]1CC[C@H](C(=O)N[C@@H](Cc2ccc(OCc3ccccc3)cc2)C(=O)Nc2ccc(CC(=O)O)cc2)CC1 [Compound 8] | 25 µM | 9.2 µM | 3 µM | 260 µM | 290 µM | 58.3% | 58.3% | 58.3 | 33.3 | > 100 mg/kg | 10.6 min | – |
| NC[C@H]1CC[C@H](C(=O)N[C@@H](Cc2ccc([N+](=O)[O-])cc2)C(=O)Nc2ccc(C(=O)c3ccccc3)cc2)CC1 [Compound 10] | 7 µM | 1.8 µM | 2.7 µM | 5 µM | – | 50.0% | 33.3% | 66.7 | 53.3 | 85 mg/kg | 6.8 min | BUN (experimental DIC; Dose 10 μg/kg/min infusion): 32 ± 2 mg/dL; FDP (experimental DIC; Dose 10 μg/kg/min infusion): 16 to 128 µg/mL; Fbg (experimental DIC; Dose 10 μg/kg/min infusion): 109 ± 30 mg/dL; GOT (experimental DIC; Dose 10 μg/kg/min infusion): 302 ± 29 U/ml; Plat (experimental DIC; Dose 10 μg/kg/min infusion): 68 ± 8 x 10^4/μl; BUN (experimental DIC; Dose 100 μg/kg/min infusion): 30 ± 2 mg/dL; FDP (experimental DIC; Dose 100 μg/kg/min infusion): 16 to 128 µg/mL; Fbg (experimental DIC; Dose 100 μg/kg/min infusion): 128 ± 32 mg/dL; GOT (experimental DIC; Dose 100 μg/kg/min infusion): 258 ± 60 U/ml; Plat (experimental DIC; Dose 100 μg/kg/min infusion): 66 ± 10 x 10^4/μl; CPK (experimental DIC; Table 5-1, Dose 100 μg/kg/min infusion): 20 ± 5 U/1; Effect on experimental shock (Survival ratio (%) after 24 hours) (experimental shock): 79% |
| NCC1CCC(C(=O)NC(Cc2ccc(OCc3ccccn3)cc2)C(=O)Nc2ccc(C(=O)O)cc2)CC1 (stereo not shown) [Compound 20] | 65 µM | 32 µM | 1.4 µM | – | 700 µM | 58.3% | 41.7% | 58.3 | 41.7 | > 100 mg/kg | 14 min | – |
| CCOC(=O)c1ccc(OC(=O)CCCCCNC(=N)N)cc1 [FOY, gabexate mesilate, reference compound] | – | – | – | 1.3 µM | – | – | – | – | – | 248 mg/kg | – | IC50 (human plasmin [1]): 3.4 µM; IC50 (human plasmin [2]): 3 µM; IC50 (human plasma kallikrein): 1.3 µM; IC50 (bovine factor Xa): 43 µM; Effect of existing control drug on experimental pancreatitis After 24 hours ([3]; 250 μg/kg/min x 80 min): 16.6; Effect of existing control drug on experimental pancreatitis After 24 hours ([3]; 1000 μg/kg/min x 80 min): 42.0; half-life ([4]; in vivo): 0.4 min |
